Tests used:
[1] = test system: Synechocystis sp. strain 6803; assay: Effect of copper on activity of hydrazones: in vitro growth inhibition of Synechocystis in BG-11 Cu minus / Cu plus medium (Example 11); assay type: cell-based; conditions: 72 h; for % Inhn. Plus Copper Observed: BG-11 Cu plus medium
Description: In vitro toxicity assays against the cyanobacterium (blue-green alga) Synechocystis sp. strain 6803 were conducted using BG-11 medium except that copper micronutrient, normally included as CuSO4.5H2O, was omitted. The medium, termed BG-11 Cu minus, was prepared by dissolving 1.5 g NaNO3, 40 mg K2HPO4, 6 mg citric acid, 1 mg Na2EDTA and 20 mg Na2CO3 in 1 liter of milli Q water and treating the solution with 0.5 g Chelex 100 resin (Bio-Rad Analytical grade, 50-100 mesh, sodium form, cat#142-2822) by stifling at room temperature for 1 h. 900 mL were decanted and 67.5 mg MgSO4.7H2O, 32.4 mg […], 5.4 mg ferric ammonium citrate and 0.9 mL trace metal mix A5 without copper (2.86 g H3BO3, 1.81 g MnCl2.4H2O, 222 mg ZnSO4.7H2O, 390 mg Na2MoO4.2H2O and Co(NO3)2.6H2O in 1 L Milli Q water) was added. The pH was adjusted to 7.1 and the medium was filter-sterilized. Medium containing copper (BG-11 Cu plus) was prepared by adding CuCl2.2H2O to the BG-11 Cu minus medium at 0.2 μM. Test compounds were dissolved in dimethylsulfoxide (DMSO) at 2 mg/mL then appropriate dilutions in BG-11 Cu minus and BG-11 Cu plus media were prepared in sterilized microcentrifuge tubes. 100 μL aliquots were dispensed into flat-bottomed 96-well microtiter plates. Synechocystis was maintained under 24 h of light on BG-11 agar plates at 27° C. A loopful of cells was added to 50 mL of BG-11 Cu minus growth medium and the culture was incubated with shaking at 200 rpm at 27° C. for 24 h. The culture (10 to 20 mL aliquot) was centrifuged in a bench centrifuge at 2400 rpm for 2 min. The resulting cell pellet was resuspended in 5 mL sterile milli Q water (which had been treated with Chelex 100 resin using 0.5 g resin per liter of water by stirring at room temperature for 1 h), and recentrifuged. The cells were resuspended in BG-11 Cu minus medium, and the suspension adjusted to 4×10^5 spores per mL. Microtiter plates containing compounds as described above were inoculated with 100 μL of this cell suspension and the plates incubated at 27° C. for 72 h before assessing algal growth by measuring light scattering in a NepheloStar plate reader. Growth inhibition was determined by comparing growth in the presence of test compound with growth in control wells lacking test compound. Results for growth inhibition by test compounds in BG-11 Cu plus medium (% Inhn Plus Copper Observed) were compared with predicted values (% Inhn Plus Copper Predicted) that were calculated using the formula set forth by S. R. Colby in Weeds 1967, 15, 20-22 based on-results obtained for the same compounds in BG-11 Cu minus medium (% Inhn Minus Copper Observed) and the inhibition attributed to copper chloride alone, as determined by comparing growth in copper-minus and copper-plus media without any test compound across experiments. Results illustrate that hydrazones and copper produce a synergistic algicidal effect towards Synechocystis.

C. reinhardtii CC-1928 = assay: Effect of copper on activity of hydrazones: in vitro growth inhibition of C. reinhardtii in TAP Cu minus / TAP Cu plus medium (Example 10); assay type: cell-based, Chlamydomonas reinhardtii; conditions: test compound 1 μg/mL, 48 h; for inhibition of growth at 1 µg/mL: Chlamydomonas reinhardtii, TAP Cu minus medium, read-out: % Inhn. Minus Copper Observed; for % Inhn. Plus Copper Observed: TAP Cu plus medium (CuCl2)
Description: In vitro toxicity assays against C. reinhardtii CC-1928 (wild type mt+137c green in dark subclone) obtained from the Chlamydomonas Resource Center at Duke University were conducted using TAP liquid growth medium described by Gorman and Levine Proc. Natl. Acad. Sci. USA 1965, 54, 1665-1669 except that CuSO4.5H2O, normally included as a component of Hutner's trace element stock solution (Hutner et al. Proc. Am. Philos. Soc. 1950, 94, 152-170), was omitted. The TAP medium lacking Cu (TAP Cu minus) was prepared by adding 400 mg NH4Cl, 10 mL of 100× Tris-Acetate (242 g Tris-base and 100 mL glacial acetic acid in 1000 mL milli Q water), and 8.3 mL of 120.5× phosphate buffer (14.34 g K2HPO4 and 7.26 g KH2PO4 in 1000 mL milli Q water) to milli Q water to make a total volume of 1 liter. The medium was treated with 0.5 g Chelex 100 resin (Bio-Rad Analytical grade, 50-100 mesh, sodium form, cat#142-2822) by stirring at room temperature for 1 hour. 900 mL were decanted and 45.9 mg of CaCl2.2H2O, 90 mg of MgSO4.7H2O and 0.9 mL Hutner's trace elements lacking CuSO4.5H2O were added and the solution was filter-sterilized. Medium containing copper (TAP Cu plus) was prepared by adding CuCl2.2H2O to the TAP Cu minus medium at 20 μM. Test compounds were dissolved in dimethylsulfoxide (DMSO) at 2 mg/mL then dilutions in TAP Cu minus and TAP Cu plus media were prepared in sterilized microcentrifuge tubes at 2 μg/mL. 100 μL aliquots of diluted compound were dispensed into flat-bottomed 96-well microtiter plates. C. reinhardtii was maintained under 12 h of light on TAP agar plates at 18° C. A loopful of cells was added to 50 mL of TAP Cu minus medium and the culture incubated with shaking at 200 rpm at 27° C. for 24 h. The culture (10 to 20 mL aliquot) was centrifuged in a bench centrifuge at 2000 rpm for 2 min. The resulting cell pellet was resuspended in 5 mL sterile milli Q water (which had been treated with Chelex 100 resin using 0.5 g resin per liter of water by stirring at room temperature for 1 h), and recentrifuged. The cells were resuspended in TAP Cu minus medium, and the suspension adjusted to 2×10^5 spores per mL. Microtiter plates containing compounds as described above were inoculated with 100 μL of this cell suspension and the plates incubated at 27° C. for 48 h before assessing algal growth by measuring light scattering in a NepheloStar plate-reader. Growth inhibition was determined by comparing growth in the presence of test compound with growth in control wells lacking test compound. Results for growth inhibition by test compounds at 1 μg/mL in TAP Cu plus medium (% Inhn Plus Copper Observed) were compared with predicted values (% Inhn Plus Copper Predicted) that were calculated using the formula set forth by S. R. Colby in Weeds 1967, 15, 20-22 based on results obtained for the same compounds in TAP Cu minus medium (% Inhn Minus Copper Observed). […] Results illustrate that hydrazones and copper produce a synergistic algicidal effect towards C. reinhardtii.

[2] = Synechocystis, Test Concn. 0.05 μg/mL, BG-11 Cu minus medium, read-out: % Inhn. Minus Copper Observed
[3] = Synechocystis, Test Concn. 0.00625 μg/mL, BG-11 Cu minus medium, read-out: % Inhn. Minus Copper Observed

| Compound | melting point | inhibition of growth at 0.05 µg/mL [1, 2] | % Inhn. Plus Copper Observed ([1]; Test Concn. 0.05 μg/mL) | inhibition of growth at 1 µg/mL (C. reinhardtii CC-1928) | % Inhn. Plus Copper Observed (C. reinhardtii CC-1928) | inhibition of growth at 0.00625 µg/mL [1, 3] | % Inhn. Plus Copper Observed ([1]; Test Concn. 0.00625 μg/mL) | inhibition of growth at 0.0125 µg/mL ([1]; Synechocystis, Test Concn. 0.0125 μg/mL, BG-11 Cu minus medium, read-out: % Inhn. Minus Copper Observed) | % Inhn. Plus Copper Observed ([1]; Test Concn. 0.0125 μg/mL) |
| --- | --- | --- | --- | --- | --- | --- | --- | --- | --- |
| C/C(=N\NC(=O)c1ccccc1)c1ccccc1O [Compound 2] | 185 to 187 °C | -8% | 97% | 10% | 95% | – | – | – | – |
| O=C(N/N=C/c1cc(Cl)ccc1O)c1ccccc1 [Compound 3] | – | -17% | 96% | 25% | 62% | – | – | – | – |
| O=C(N/N=C/c1cc(Cl)cc(Cl)c1O)c1ccc(F)cc1 [Compound 4] | – | -14% | 96% | 12% | 92% | – | – | – | – |
| C/C(=N\NC(=O)c1ccccc1Br)c1cc(Cl)cc(Cl)c1O [Compound 5] | 220 to 222 °C | -10% | 91% | 26% | 95% | – | – | – | – |
| O=C(N/N=C/c1cc(Cl)cc(Cl)c1O)c1cccc(Cl)c1 [Compound 8] | – | 62% | 92% | 15% | 92% | – | – | – | – |
| O=C(N/N=C/c1cc(Cl)cc(Cl)c1O)c1ccc(Br)cc1 [Compound 9] | – | – | – | 7% | 90% | 15% | 74% | – | – |
| O=C(N/N=C/c1cc(Cl)cc(Cl)c1O)c1ccc2ccccc2c1 [Compound 10] | 215 to 217 °C | 44% | 95% | 24% | 93% | – | – | – | – |
| O=C(N/N=C/c1cc(Br)cc(Br)c1O)c1ccccc1 [Compound 11] | – | 50% | 97% | 31% | 96% | – | – | – | – |
| C/C(=N\NC(=O)Cc1ccccc1)c1cc(Cl)cc(Cl)c1O [Compound 13] | 199 to 204 °C | 22% | 96% | 17% | 96% | – | – | – | – |
| Cc1ccccc1C(=O)N/N=C/c1cc(Cl)cc(Br)c1O [Compound 16] | – | -5% | 94% | -3% | 95% | – | – | – | – |
| O=C(N/N=C/c1cc(Cl)cc(Br)c1O)c1cccc(Br)c1 [Compound 17] | – | – | – | 32% | 83% | 59% | 72% | – | – |
| COc1cc(Br)cc(/C=N/NC(=O)c2cccc(Br)c2)c1O [Compound 19] | – | -18% | 43% | 12% | 52% | – | – | – | – |
| COc1cc(Br)cc(/C=N/NC(=O)c2ccc(C)cc2)c1O [Compound 20] | – | 9% | 86% | -6% | 94% | – | – | – | – |
| O=C(N/N=C/c1cc(Cl)cc(Cl)c1O)c1cccc(C(F)(F)F)c1 [Compound 22] | 165 to 169 °C | 48% | 94% | -14% | 96% | – | – | – | – |
| C/C(=N\NC(=O)c1ccc(Cl)cc1)c1cccc([N+](=O)[O-])c1O [Compound 23] | 241 to 251 °C | – | – | -37% | 89% | – | – | 27% | 92% |
| O=C(N/N=C/c1c(O)cccc1Cl)c1ccc([N+](=O)[O-])cc1 [Compound 49] | > 300 °C | – | – | 33% | 93% | – | – | – | – |
| O=C(N/N=C/c1c(O)cccc1Cl)c1cccc(F)c1 [Compound 69] | 257 to 259 °C | – | – | – | – | – | – | – | – |
| O=C(N/N=C/c1c(O)cccc1Cl)c1ccc(Cl)cc1 [Compound 70, 4-chlorobenzoic acid [1-(2-chloro-6-hydroxyphenyl)-methylidene]-hydrazide] | 273 to 277 °C | – | – | – | – | – | – | – | – |
| O=C(N/N=C/c1cc(C(F)(F)F)ccc1O)c1ccccc1O [Compound 71] | 277 to 281 °C | – | – | – | – | – | – | – | – |

— patent publication US8906829B2, “Synergistic algicidal compositions including hydrazone derivatives and copper” (Dow AgroSciences LLC, priority 2010, dated 2014)
